Target: T1, GID4 (Uniprot ID: Q81VV7, residues 124-289) (Homo sapiens, UniProt Q8IVV7)
T1 construct: GID4 (Uniprot ID: Q81VV7, residues 124-289)
T1 sequence (Q8IVV7 124-289): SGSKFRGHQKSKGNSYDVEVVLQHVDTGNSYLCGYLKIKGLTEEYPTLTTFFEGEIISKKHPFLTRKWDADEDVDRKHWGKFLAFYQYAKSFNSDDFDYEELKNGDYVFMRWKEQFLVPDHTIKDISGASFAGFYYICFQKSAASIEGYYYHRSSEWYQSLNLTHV
Experiment: GID4 competitive binding assay (AlphaScreen, GID4/degron peptide PGLW)
Conditions: 24 nM GID4, 48 nM biotinylated degron peptide PGLW, 4° C., read-out: IC50 (Inhibition of GID4/Degron binding by test compounds)
Outline: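 Displacement of biotin-tagged degron tetrapeptide PGLW (48 nM) from C-terminally 6His-tagged GID4 124-289 (24 nM) read by AlphaScreen proximity signal. Compound incubation 2 h, then beads 1 h, all at 4 °C, pH 7.5, 2% DMSO final; background-corrected inhibition fitted with variable slope for IC50.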

| IC50 | SMILES |
| --- | --- |
| < 500 nM | Nc1nccc2ccc(-c3ccc4[nH]ncc4c3)cc12 [Compound 361, 7-(1H-indazol-5-yl)isoquinolin-1-amine] |
| 500 to 5000 nM | Nc1nc(NC2CC2)cc(N2CCCC(c3cnc4ccccn34)C2)n1 (centres unmarked) [Compound 107, N4-cyclopropyl-6-(3-(imidazo[1,2-a]pyridin-3-yl)piperidin-1-yl)pyrimidine-2,4-diamine] |
| 500 to 5000 nM | Nc1nc(N2CCN[C@@H](c3ccccc3Br)C2)c2[nH]ccc2n1 (racemic) [Compound 43, (S/R)-4-(3-(2-bromophenyl)piperazin-1-yl)-5H-pyrrolo[3,2-d]pyrimidin-2-amine] |
| < 500 nM | Nc1nccc2ccc(-c3ccc4[nH]nc(C(=O)NCCO)c4c3)cc12 [Compound 331, 5-(1-aminoisoquinolin-7-yl)-N-(2-hydroxyethyl)-1H-indazole-3-carboxamide] |
| 500 to 5000 nM | CCCNC(=O)c1ccc(-c2cc(O)c3ncccc3c2)cc1 [Compound 302, 4-(8-hydroxyquinolin-6-yl)-N-propylbenzamide] |
| < 500 nM | CN1CCN(c2cc(N)nc(NC3CC3)n2)CC1c1ccccc1Br (centres unmarked) [Compound 71, 6-(3-(2-bromophenyl)-4-methylpiperazin-1-yl)-N2-cyclopropylpyrimidine-2,4-diamine] |
| < 500 nM | CN1CCC(NC(=O)c2n[nH]c3ccc(-c4ccc5ccnc(N)c5c4)cc23)CC1 [Compound 338, 5-(1-aminoisoquinolin-7-yl)-N-(1-methylpiperidin-4-yl)-1H-indazole-3-carboxamide] |
| 500 to 5000 nM | CC(C)c1cc(N2CCCC(c3cnc4ccncn34)C2)nc(N)n1 (centres unmarked) [Compound 239, 4-(3-(imidazo[1,2-c]pyrimidin-3-yl)piperidin-1-yl)-6-isopropylpyrimidin-2-amine] |
| > 5000 nM | CN(C)CCNC(=O)c1c2cc(-c3ccc4ccnc(N)c4c3)ccc2nn1C [Compound 360, 5-(1-aminoisoquinolin-7-yl)-N-(2-(dimethylamino)ethyl)-2-methyl-2H-indazole-3-carboxamide] |
| < 500 nM | CC(C)c1cc(N2CCCC(c3cnc4ncccn34)C2)nc(N)n1 (centres unmarked) [Compound 245, 4-(3-(imidazo[1,2-a]pyrimidin-3-yl)piperidin-1-yl)-6-isopropylpyrimidin-2-amine] |
| 500 to 5000 nM | CC(C)c1cc(N2CCCC(c3ncc4ccccn34)C2)nc(N)n1 (centres unmarked) [Compound 244, 4-(3-(imidazo[1,5-a]pyridin-3-yl)piperidin-1-yl)-6-isopropylpyrimidin-2-amine] |
| > 5000 nM | Nc1nccc2ccc(Cc3cccc(C(=O)N4CCCC4)c3)cc12 [Compound 343, (3-((1-aminoisoquinolin-7-yl)methyl)phenyl)(pyrrolidin-1-yl)methanone] |
| > 5000 nM | Cc1ccccc1C1CN(c2cc(C(C)C)nc(N)n2)CCN1 (centres unmarked) [Compound 177, 4-isopropyl-6-(3-(o-tolyl)piperazin-1-yl)pyrimidin-2-amine] |
| > 5000 nM | Nc1nc2c(c(N3CCCC(c4cnc5ccccn45)C3)n1)CSC2 (centres unmarked) [Compound 186, 4-(3-(imidazo[1,2-a]pyridin-3-yl)piperidin-1-yl)-5,7-dihydrothieno[3,4-d]pyrimidin-2-amine] |
| 500 to 5000 nM | CNc1nc(N)cc(N2CCCC(c3cnc4ccccn34)C2)n1 (racemic) [Compound 118, (R/S)-6-(3-(imidazo[1,2-a]pyridin-3-yl)piperidin-1-yl)-N2-methylpyrimidine-2,4-diamine] |
| 500 to 5000 nM | CC(C)c1cc(N2CCNC(c3c[nH]c4ccccc34)C2)nc(N)n1 (centres unmarked) [Compound 138, 4-(3-(1H-indol-3-yl)piperazin-1-yl)-6-isopropylpyrimidin-2-amine] |

| IC50 | SMILES |
| --- | --- |
| 500 to 5000 nM | CCc1ccccc1C1CN(c2cc(C(C)C)nc(N)n2)CCN1 (centres unmarked) [Compound 168, 4-(3-(2-ethylphenyl)piperazin-1-yl)-6-isopropylpyrimidin-2-amine] |
| > 5000 nM | Cc1nc(N)nc(N2CCCC(c3ccn[nH]3)C2)c1C (centres unmarked) [Compound 214, 4-(3-(1H-pyrazol-5-yl)piperidin-1-yl)-5,6-dimethylpyrimidin-2-amine] |
| > 5000 nM | Nc1nc(N2CCOC(c3ccccc3Br)C2)c2cc[nH]c2n1 (single isomer, unassigned) [Compound 39, (R/S)-4-(2-(2-bromophenyl)morpholino)-7H-pyrrolo[2,3-d]pyrimidin-2-amine] |
| < 500 nM | Nc1cc(N2CCO[C@@](CO)(c3ccccc3Br)C2)nc(N)n1 (stereo in doubt) [Compound 37, (S/R)-(2-(2-bromophenyl)-4-(2,6-diaminopyrimidin-4-yl)morpholin-2-yl)methanol] |
| < 500 nM | CN(C)CCNC(=O)c1cc2cc(-c3ccc4ccnc(N)c4c3)ccc2cn1 [Compound 356, 1′-amino-N-(2-(dimethylamino)ethyl)-[6,7′-biisoquinoline]-3-carboxamide] |
| < 500 nM | CN(C)[C@H]1C[C@@H](NC(=O)c2ccc(-c3cc(O)c4ncccc4c3)cc2)C1 [Compound 279, N-(cis-3-(dimethylamino)cyclobutyl)-4-(8-hydroxyquinolin-6-yl)benzamide] |
| > 5000 nM | CC1CNCCN1c1cc(-c2ccnn2C)c2ccnc(-c3ccn[nH]3)c2n1 (centres unmarked) [Compound 363, 4-(1-methyl-1H-pyrazol-5-yl)-2-(2-methylpiperazin-1-yl)-8-(1H-pyrazol-5-yl)-1,7-naphthyridine] |
| > 5000 nM | CNc1cc(N2CCOC(c3ccccc3)C2)nc(N)n1 (single isomer, unassigned) [Compound 108, (R/S)-N4-methyl-6-(2-phenylmorpholino)pyrimidine-2,4-diamine] |
| < 500 nM | CN(C)CCNC(=O)c1ccc(-c2cc(O)c3ncncc3c2)cc1 [Compound 270, N-(2-(dimethylamino)ethyl)-4-(8-hydroxyquinazolin-6-yl)benzamide] |
| 500 to 5000 nM | CNc1cc(N2CCN(C)C(c3ccccc3)C2)nc(N)n1 (centres unmarked) [Compound 110, N4-methyl-6-(4-methyl-3-phenylpiperazin-1-yl)pyrimidine-2,4-diamine] |
| 500 to 5000 nM | CNc1cc(N2CCC[C@H](c3ccccc3Br)C2)nc(NC)n1 (stereo in doubt) [Compound 83, (R/S)-6-(3-(2-bromophenyl)piperidin-1-yl)-N2,N4-dimethylpyrimidine-2,4-diamine] |
| 500 to 5000 nM | CC(C)c1cc(N2C=C(c3ccccc3Br)CCC2)nc(N)n1 [Compound 227, 4-(5-(2-bromophenyl)-3,4-dihydropyridin-1(2H)-yl)-6-isopropylpyrimidin-2-amine] |
| 500 to 5000 nM | CC(C)c1cc(N2CCNC(c3ccccc3Cl)C2)nc(N)n1 (centres unmarked) [Compound 175, 4-(3-(2-chlorophenyl)piperazin-1-yl)-6-isopropylpyrimidin-2-amine] |
| 500 to 5000 nM | Nc1cc(N2CCCC(c3n[nH]c4ccccc34)C2)nc(N)n1 (centres unmarked) [Compound 246, 6-(3-(1H-indazol-3-yl)piperidin-1-yl)pyrimidine-2,4-diamine] |
| < 500 nM | CN1CC(NC(=O)c2ccc(-c3cc(O)c4ncccc4c3)cc2)C1 [Compound 291, 4-(8-hydroxyquinolin-6-yl)-N-(1-methylazetidin-3-yl)benzamide] |
| 500 to 5000 nM | CC(C)c1cc(-c2cc(-c3ccnn3C)c3ccnc(-c4cc[nH]n4)c3n2)cc(N)n1 [Compound 366, 6-isopropyl-4-(4-(1-methyl-1H-pyrazol-5-yl)-8-(1H-pyrazol-3-yl)-1,7-naphthyridin-2-yl)pyridin-2-amine] |

— patent US20240132464A1, “HETEROCYCLIC COMPOUNDS AS E3 LIGASE INHIBITORS” (Accutar Biotechnology Inc., priority 2022, published 2024)
